According to ChEMBL document CHEMBL5247589, “Natural occurrence, bioactivity, and biosynthesis of triene-ansamycins” (Eur J Med Chem, 2022):
Values after ≈ are worked out from the molar mass of the structure shown. One block for each compound: values may come before it.

Key:
[1] = Antiproliferative activity against human U87 cells overexpressing miR-9 assessed as cell viability incubated for 48 hrs by Cell Counting Kit-8 assay; type: functional, cell-based, U-87MG ATCC; settings: U-87 MG
PC-3 [2] = test: Antiproliferative activity against human PC3 cells assessed as cell viability incubated for 48 hrs by Cell Counting Kit-8 assay; type: functional, cell-based; settings: PC-3, 48 h
HepG2 [3] = test: Antiproliferative activity against human HepG2 cells assessed as cell viability incubated for 48 hrs by Cell Counting Kit-8 assay; type: functional, cell-based; settings: HepG2, 48 h
HeLa [4] = test: Antitumor activity against human HeLa cells assessed as cell growth inhibition incubated for 5 days by MTT assay; type: functional, cell-based; settings: 120 h
SiHa = test: Antitumor activity against human SiHa cells assessed as cell growth inhibition incubated for 5 days by MTT assay; type: functional, cell-based; settings: 120 h
C-33-A = test: Antitumor activity against human C-33-A cells assessed as cell growth inhibition incubated for 5 days by MTT assay; type: functional, cell-based; settings: 120 h
Ca-Ski = test: Antitumor activity against human Ca-Ski cells assessed as cell growth inhibition incubated for 5 days by MTT assay; type: functional, cell-based; settings: 120 h
HT-3 = test: Antitumor activity against human HT-3 cells assessed as cell growth inhibition incubated for 5 days by MTT assay; type: functional, cell-based; settings: HT-3, 120 h
PC-3 [5] = test: Antiproliferative activity against human PC-3 assessed as cell growth inhibition incubated for 48 hrs by Cell Counting Kit-8 assay; type: functional, cell-based; settings: PC-3, 48 h
[6] = Antiproliferative activity against human U-87 MG assessed as cell growth inhibition incubated for 48 hrs by Cell Counting Kit-8 assay; type: functional, cell-based, U-87MG ATCC
HepG2 [7] = test: Antiproliferative activity against human HepG2 assessed as cell growth inhibition incubated for 48 hrs by Cell Counting Kit-8 assay; type: functional, cell-based; settings: HepG2, 48 h
HL-60 [8] = test: Induction of apoptosis in human HL-60 cells assessed as effective dose; type: functional; settings: read-out: ED50 (the source's name)
HL-60 [9] = test: Antitumor activity against human HL60 cells assessed as cell growth incubated for 1 day by MTT assay; type: functional, cell-based; settings: HL-60, 24 h
[10] = Cytotoxicity against human WI-38 cells assessed as cell growth incubated for 1 day by MTT assay; type: toxicity, cell-based
[11] = Inhibition of bovine brain FTase; parameters: species or system Bos taurus
Saccharomyces cerevisiae = test: Antifungal activity against Saccharomyces cerevisiae IFO 0304 assessed as inhibition of fungal growth incubated for 72 hrs by broth dilution method; type: functional
Pichia kudriavzevii = test: Antifungal activity against Pichia kudriavzevii IFO 0590 assessed as inhibition of fungal growth incubated for 72 hrs by broth dilution method; type: functional
L5178Y [12] = test: Cytotoxicity against mouse L5178Y cells; type: functional
Cyberlindnera jadinii = test: Antifungal activity against Cyberlindnera jadinii IFO 0396 assessed as inhibition of fungal growth incubated for 72 hrs by broth dilution method; type: functional; settings: Williopsis jadinii
Rhizomucor pusillus = test: Antifungal activity against Rhizomucor pusillus IAM 6122 assessed as inhibition of fungal growth incubated for 72 hrs by broth dilution method; type: functional
L5178Y [13] = test: Cytotoxicity against mouse L5178Y; type: toxicity, cell-based
[14] = Toxicity in CDF1 mouse allografted with mouse […] cells assessed as lethal dose administered for 6 days ,ip; type: cell-based; settings: in vivo, time 6 day
Rhizopus delemar = test: Antifungal activity against Rhizopus delemar IAM 6015 assessed as inhibition of fungal growth incubated for 72 hrs by broth dilution method; type: functional
Penicillium chrysogenum = test: Antifungal activity against Penicillium chrysogenum1AM 7106 assessed as inhibition of fungal growth incubated for 72 hrs by broth dilution method; type: functional; settings: 1AM 7106
Aspergillus japonicus = test: Antifungal activity against Aspergillus japonicus IAM 2016 assessed as inhibition of fungal growth incubated for 72 hrs by broth dilution method; type: functional
HL-60 [15] = test: Antitumor activity against human HL60 cells; type: functional, cell-based
U-937 = test: Antitumor activity against human U937 cells; type: functional, cell-based
B16 = test: Antitumor activity against mouse B-16 cells; type: functional, cell-based
HeLa [16] = test: Antitumor activity against human HeLa cells; type: functional, cell-based
THP-1 = test: Antitumor activity against human THP1 cells; type: functional, cell-based
HT-29 = test: Antitumor activity against human HT29 cells; type: functional, cell-based
HCT-116 = test: Antitumor activity against human HCT116 cells; type: functional, cell-based
PC-3 [17] = test: Antitumor activity against human PC-3 cells incubated for 72 hrs by SRB calorimetric assay; type: functional, cell-based; settings: PC-3, 72 h
Capan-2 = test: Antitumor activity against human Capan-2 cells incubated for 48 to 72 hrs by MTS Assay; type: functional, cell-based
HepG2 [18] = test: Antitumor activity against human HepG2 cells incubated for 72 hrs by SRB calorimetric assay; type: functional, cell-based; settings: HepG2, 72 h
BXPC-3 = test: Antitumor activity against human BXPC-3 cells incubated for 48 to 72 hrs by MTS Assay; type: functional, cell-based
PANC-1 = test: Antitumor activity against human PANC-1 cells incubated for 48 to 72 hrs by MTS Assay; type: functional, cell-based
[19] = Inhibition of NO production in LPS stimulated mouse BV-2 cells measured after 24 hrs; type: functional, cell-based; settings: BV-2, 24 h

- IC50 (PC-3 [2]): > 10000 nM
- IC50 (HepG2 [3]): > 10000 nM
Structure (SMILES): CO[C@@H]1CC(=O)Nc2c(O)c3cc4c2[C@H]1[C@@H](/C=C/C=C/C[C@H](O)[C@H](C)[C@@H](OC(=O)[C@@H](C)NC(=O)C1CCCCC1)/C(C)=C\CC3)O4
- IC50 [1]: > 10000 nM

- IC50 (HeLa [4]): 450 nM
Structure (SMILES): CO[C@H]1/C=C/C=C/C=C/C[C@H](O)[C@H](C)[C@@H](OC(=O)[C@@H](C)NC(=O)C2CCCCC2)/C(C)=C\CCC2=C(O)C(=O)C=C(NC(=O)C1)C2=O
- IC50 (SiHa): 450 nM
- IC50 (C-33-A): 450 nM
- IC50 (Ca-Ski): 450 nM
- IC50 (HT-3): 450 nM

- IC50 (PC-3 [5]): 2210 nM
- IC50 (HepG2 [7]): 610 nM
Structure (SMILES): CO[C@@H]1CC(=O)Nc2c(O)c3cc4c2[C@H]1[C@@H](/C=C/C=C/C[C@H](OC(=O)[C@@H](C)NC(=O)C1CCCCC1)[C@H](C)[C@@H](O)/C(C)=C\CC3)O4
- IC50 [6]: 7010 nM

- IC50 (BXPC-3): > 10000 nM
- EC50 [19]: 292 nM
- IC50 (PANC-1): > 10000 nM
Structure (SMILES): CO[C@H]1/C=C/C=C/C=C/C[C@H](O)[C@H](C)[C@@H](OC(=O)[C@@H](C)NC(=O)C2CCCCC2)/C(C)=C\CCc2cc(O)cc(c2)NC(=O)C1
- IC50 (Capan-2): > 10000 nM

Continued, compound first:

Structure (SMILES): CO[C@H]1/C=C/C=C/C=C/C[C@H](OC(=O)C2(NC(=O)C3CCCCC3)CC2)[C@H](C)[C@@H](O)/C(C)=C\CCc2cc(O)cc(c2O)NC(=O)C1
- EC50 (HL-60 [8]): 7700 nM
- IC50 (HL-60 [9]): 7.7 nM
- IC50 at 1 day [10]: 7.7 nM

Structure (SMILES): CO[C@H]1/C=C/C=C/C=C/C[C@H](OC(=O)[C@@H](C)NC(=O)C2=CCCCC2)[C@H](C)[C@@H](O)/C(C)=C\CCc2cc(O)cc(c2O)NC(=O)C1
- IC50 [11]: 1.2 µg/mL (≈ 1.88 µM)

Structure (SMILES): CO[C@H]1/C=C/C=C/C=C/C[C@H](OC(=O)[C@@H](C)NC(=O)C2CCCCC2)[C@H](C)[C@@H](O)/C(C)=C\CCC2=CC(=O)C=C(NC(=O)C1)C2=O
- MIC (Saccharomyces cerevisiae): 4 µg/mL (≈ 6.28 µM)
- MIC (Pichia kudriavzevii): 4 µg/mL (≈ 6.28 µM)
- MIC (L5178Y [12]): 0.11 µg/mL (≈ 0.173 µM)
- MIC (Cyberlindnera jadinii): 4 µg/mL (≈ 6.28 µM)
- MIC (Rhizomucor pusillus): 4 µg/mL (≈ 6.28 µM)
- MIC (L5178Y [13]): 1.25 µM (≈ 0.796 µg/mL)
- LD50 at 144 h [14]: 56 mg/kg
- MIC (Rhizopus delemar): 4 µg/mL (≈ 6.28 µM)
- MIC (Penicillium chrysogenum): 4 µg/mL (≈ 6.28 µM)
- MIC (Aspergillus japonicus): 4 µg/mL (≈ 6.28 µM)

Structure (SMILES): CO[C@H]1/C=C/C=C/C=C/C[C@H](OC(=O)C2(NC(=O)C3=CCCCC3)CC2)[C@H](C)[C@@H](O)/C(C)=C\CCc2c(O)c(cc3c2SCC(=O)N3)NC(=O)C1
- IC50 (HL-60 [15]): 300 nM
- IC50 (U-937): 300 nM
- IC50 (B16): 300 nM
- IC50 (HeLa [16]): 300 nM
- IC50 (THP-1): 300 nM
- IC50 (HT-29): 300 nM
- IC50 (HCT-116): 300 nM

Structure (SMILES): CO[C@H]1/C=C/C=C/C=C/C[C@H](OC(=O)[C@@H](C)NC(=O)C2CCCCC2)[C@H](C)[C@@H](O)/C(C)=C\CCC2=C(O)C(=O)C=C(NC(=O)C1)C2=O
- IC50 (HeLa [4]): 70 nM
- IC50 (SiHa): 70 nM
- IC50 (C-33-A): 70 nM
- IC50 (Ca-Ski): 70 nM
- IC50 (HT-3): 70 nM

Structure (SMILES): CCCC(=O)N[C@H](C)C(=O)O[C@H]1C/C=C/C=C/C=C/[C@H](OC)CC(=O)Nc2cc(O)cc(c2)CC/C=C(/C)[C@H](O)[C@H]1C
- IC50 (PC-3 [17]): 2040 nM
- IC50 (Capan-2): 2040 nM
- IC50 (HepG2 [18]): 2040 nM
- IC50 (BXPC-3): 2040 nM
- IC50 (PANC-1): 2040 nM
